Like-named read-outs stand apart in the source and are kept apart here. Marks after values point to notes of the source that are not given here.
What was measured:
[1] = target: T1, hCB2 (Homo sapiens, UniProt P34972); test: Radioligand competition binding with [3H]-CP 55,940 on hCB2-expressing HEK membranes; details: for hCB2 displacement of [3H]-CP 55,940 in 10 μM screen (in words): 10 μM heterologous competition screen, cut-off 60%; for inhibition at 10 µM: 1 h, read-out: CB2 binding extent at 10 μM (%) (±SEM); for Reduction in hCB2 binding affinity compared to 15: compared to methylpiperazinyl-15
T1 construct: expressed in transfected cells; host or cells: HEK Flp-in

[2] = target: T2, hCB1 (Homo sapiens, UniProt P21554); test: Radioligand competition binding screen with [3H]-CP 55,940 on hCB1-expressing HEK membranes; details: for CB1 binding extent at 10 μM (%) (±SEM): 10 μM compound, displacement of 0.75 nM [3H]-CP 55,940; for CB2 selectivity over CB1 (in words): from CB1 binding at 10 μM versus CB2 affinity
T2 construct: expressed in transfected cells; host or cells: HEK (membranes)

[3] = target: T1, hCB2; test: hCB2 internalisation assay (immunocytochemistry of surface receptor), HEK Flp-in hCB2 cells; assay type: cell-based; design: Emax: dose or concentration left out as unconfirmed; details: for logR [log(τ/KA)] (±SEM) Internalisation: operational model transduction ratio
[4] = target: T1, hCB2; test: Real-time CAMYEL BRET cAMP assay, forskolin-stimulated HEK Flp-in hCB2 cells; assay type: cell-based; details: for logR [log(τ/KA)] (±SEM) cAMP: operational model transduction ratio
Description: Cellular cAMP levels were measured using a real-time BRET biosensor (CAMYEL) as previously described ([Cawston et al., 2013]). In brief, cells were seeded in 10 cm dishes one day prior to transfection. The medium was then replaced and cells transfected with 5 μg of pcDNA3L-His-CAMYEL (ATCC, Manassas, VA, United States) using linear PEI (MW 25 kDa; Polysciences, Warrington, PA, United States) with a DNA:PEI ratio of 1:6. Approximately 24 h after transfection, cells were trypsinised and re-plated in poly-D-lysine treated white 96-well plates (Corning), at a density of 5–6 × 10^4 cells per well. For experiments involving pertussis toxin (PTX; Sigma-Aldrich) pre-treatment, cells were seeded in half the usual volume of medium, and then ∼5 h later, 2× concentrated PTX or vehicle (50% glycerol, […] Tris–HCl pH 7.5, 10 mM glycine, 500 mM NaCl) were prepared in medium and added to the existing plating medium (giving rise to a final PTX concentration of 100 ng mL^-1). Approximately 24 h after plating (or 16–20 h after applying PTX/vehicle in experiments involving PTX treatment), cells were washed once with Hank’s Balanced Salt Solution (HBSS, Thermo Fisher Scientific, catalogue #14025-134), and then equilibrated for 30 min in HBSS supplemented with 1 mg mL^-1 BSA. Coelenterazine h (final concentration 5 μM; NanoLight Technologies, Pinetop, AZ, United States) was added to each well and incubated for 5 min. Forskolin was added (final concentration 5 μM) and incubated for 6 min (allowing enough time for the induced cAMP increase to plateau), prior to vehicle/drug addition. All drugs and reagents were prepared in HBSS supplemented with 1 mg mL^-1 BSA. SR 144528 was a generous gift from Roche (Basel, Switzerland).
Assays were carried out in technical duplicate. Emissions were detected at 460 nm (Rluc) and 535 nm (YFP) with either a LUMIstar® Omega luminometer (BMG Labtech, Ortenberg, Germany) or CLARIOstar® (BMG Labtech). BRET ratios (535 nm emissions/460 nm emissions, where an increase in ratio corresponds to a decrease in cAMP) were normalised to pre-forskolin reads (i.e., with coelenterazine h present) to remove any variability present prior to addition of forskolin and drug/vehicle. A Lowess curve (GraphPad Prism) was fitted to individual technical replicates within an assay so that cAMP signalling data could be extrapolated from any time point as opposed to only those that were empirically measured (typically every 30–60 s). Data were normalised to matched vehicle (0%) and forskolin (100%) treatments, allowing compilation of data from independent experiments.

[5] = tested on: HEK Flp-in wt cells; test: CAMYEL cAMP assay in HEK Flp-in wt cells (non-hCB2-mediated effects); assay type: cell-based, human; details: for Non-hCB2-mediated cAMP effects: fold less potent than cAMP inhibition in hCB2-expressing cells: HEK Flp-in wt versus HEK Flp-in hCB2; for Non-hCB2-mediated effects on cAMP (in words): HEK Flp-in wt
[6] = target: T1, hCB2; test: pERK AlphaLISA assay, HEK Flp-in hCB2 cells; assay type: cell-based; details: for logR [log(τ/KA)] (±SEM) pERK: operational model transduction ratio; for Emax: read-out: pERK (4 min) Emax (±SEM); for Time of maximal pERK response: time course experiment
[7] = target: T1, hCB2; test: Comparison of efficacy/potency and operational-model bias analysis between hCB2 pathways, reference CP 55,940; assay type: cell-based; details: for Internalisation – pERK Bias factor / cAMP – internalisation Bias factor / cAMP – pERK Bias factor: 10^ΔΔlogR; for Internalisation – pERK Bias factor / cAMP – internalisation Bias factor / cAMP – pERK Bias factor / Between-pathway signalling bias (in words): relative to CP 55,940; for Internalisation – pERK ΔΔlogR (±SEM) / cAMP – internalisation ΔΔlogR (±SEM) / cAMP – pERK ΔΔlogR (±SEM): relative to reference ligand CP 55,940
[8] = 10 μM compound, displacement of 0.5 nM [3H]-CP 55,940
[9] = heterologous competition vs [3H]-CP 55,940, read-out: CB2 pKi (±SEM) (converted)
[10] = 5 min post-drug, 5 μM forskolin, 10 and 14 approximate (non-hCB2-mediated effects), read-out: cAMP (5 min) pEC50 (±SEM) (converted)
[11] = 4 min stimulation, 14 approximate (low potency), read-out: pERK (4 min) pEC50 (±SEM) (converted)

T1 sequence (P34972 whole entry): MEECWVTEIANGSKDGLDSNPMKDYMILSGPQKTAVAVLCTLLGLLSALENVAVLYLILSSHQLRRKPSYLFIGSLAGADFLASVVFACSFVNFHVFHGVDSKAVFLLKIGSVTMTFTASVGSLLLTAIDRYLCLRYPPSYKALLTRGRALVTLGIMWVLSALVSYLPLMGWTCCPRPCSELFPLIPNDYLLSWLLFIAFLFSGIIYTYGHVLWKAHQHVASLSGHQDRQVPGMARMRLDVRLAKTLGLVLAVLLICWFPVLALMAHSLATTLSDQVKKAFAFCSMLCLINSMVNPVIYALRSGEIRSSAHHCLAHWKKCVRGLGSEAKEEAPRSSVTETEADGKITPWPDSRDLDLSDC
T2 sequence (P21554 whole entry): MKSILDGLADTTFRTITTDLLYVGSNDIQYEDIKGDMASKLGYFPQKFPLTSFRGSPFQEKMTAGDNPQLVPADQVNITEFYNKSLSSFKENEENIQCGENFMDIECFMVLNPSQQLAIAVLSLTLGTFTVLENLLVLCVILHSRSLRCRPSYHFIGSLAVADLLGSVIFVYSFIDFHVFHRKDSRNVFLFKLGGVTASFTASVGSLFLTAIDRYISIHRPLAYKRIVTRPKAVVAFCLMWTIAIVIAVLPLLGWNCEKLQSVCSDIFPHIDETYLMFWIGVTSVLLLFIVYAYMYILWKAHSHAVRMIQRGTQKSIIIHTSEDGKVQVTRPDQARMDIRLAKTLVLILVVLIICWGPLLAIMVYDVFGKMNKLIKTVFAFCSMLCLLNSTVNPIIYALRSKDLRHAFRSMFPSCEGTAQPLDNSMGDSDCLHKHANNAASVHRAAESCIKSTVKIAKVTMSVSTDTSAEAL

CCOc1nc(NC23CC4CC(CC(C4)C2)C3)nc(N2CCN(CCN)CC2)n1 [Compound 11, N-(Adamantan-1-yl)-4-(4-(2-Aminoethyl)Piperazin-1-yl)-6-Ethoxy-1,3,5-Triazin-2-Amine]
hCB2 displacement of [3H]-CP 55,940 in 10 μM screen (in words) [1]: moderate binders
inhibition at 10 µM [1, 8]: 40.1%

CCOc1nc(NC23CC4CC(CC(C4)C2)C3)nc(N2CCN(CCCCCCNC(=O)OC(C)(C)C)CC2)n1 [Compound 9, tert-Butyl N-(6(4-(4-(Adamantan-1-yl)Amino)-6-Ethoxy-1,3,5-Triazin-2-yl)Piperazin-1-yl)Hexyl) Carbamate]
hCB2 displacement of [3H]-CP 55,940 in 10 μM screen (in words) [1]: moderate binders
inhibition at 10 µM [1, 8]: 51.9%

CCOc1nc(NC2CCCC2)nc(N2CCNCC2)n1 [Compound 2, N-cyclopentyl-4-ethoxy-6-(piperazin-1-yl)-1,3,5-triazin-2-amine]
hCB2 displacement of [3H]-CP 55,940 in 10 μM screen (in words) [1]: failed to displace, or barely displaced
inhibition at 10 µM [1, 8]: 5.8%

CCOc1nc(NC2CCCC2)nc(N2CCN(CCCCCCN)CC2)n1 [Compound 5, 4-(4-(6-Aminohexyl)Piperazin-1-yl)-N-Cyclopentyl-6-Ethoxy-1,3,5-Triazin-2-Amine]
hCB2 displacement of [3H]-CP 55,940 in 10 μM screen (in words) [1]: failed to displace, or barely displaced
inhibition at 10 µM [1, 8]: 16.6%

CCOc1nc(NC23CC4CC(CC(C4)C2)C3)nc(N2CCN(CCOCCOCCNC(C)=O)CC2)n1 [Compound 14, N-(2-(2-(2-(4-(4-((Adamantan-1-yl)Amino)-6-Ethoxy-1,3,5-Triazin-2-yl)Piperazin-1-yl)Ethoxy)Ethoxy) Ethyl)Acetamide]
Ki [1]: 1.78 µM
inhibition at 10 µM [1]: 76.2%
Reduction in hCB2 binding affinity compared to 15 [1]: 2–3 log units
CB1 binding extent at 10 μM (%) (±SEM) [2]: –18.8 (11.4) %
CB2 selectivity over CB1 (in words) [2]: likely also CB2-selective
EC50 [3]: 0.174 µM
logR [log(τ/KA)] (±SEM) Internalisation [3]: 6.81 (0.23)
Emax ([3]; read-out: Internalisation (1 h) Emax (±SEM)): -61.8%
EC50 [4]: 0.955 µM
Behaviour in cAMP pathway (in words) ([4]; 5 μM forskolin): partial agonists
logR [log(τ/KA)] (±SEM) cAMP [4]: 5.83 (0.23)
Emax ([4]; read-out: cAMP (5 min) Emax (±SEM)): -29.8%
Non-hCB2-mediated cAMP effects: fold less potent than cAMP inhibition in hCB2-expressing cells [5]: ~5 fold
EC50 [6]: 7.41 µM
logR [log(τ/KA)] (±SEM) pERK [6]: 5.16 (0.09)
Emax [6]: 4.66%
Time of maximal pERK response [6]: 4 min
Internalisation – pERK Bias factor [7]: 8.6
cAMP – internalisation Bias factor [7]: 0.2
cAMP – pERK Bias factor [7]: 1.6
Between-pathway signalling bias (in words) [7]: biased towards internalisation
Internalisation – pERK ΔΔlogR (±SEM) [7]: 0.93 (0.13)**
cAMP – internalisation ΔΔlogR (±SEM) [7]: –0.73 (0.25)*
cAMP – pERK ΔΔlogR (±SEM) [7]: 0.20 (0.25)

CCOc1nc(NC2CCCC2)nc(N2CCN(CCOCCOCCN)CC2)n1 [Compound 6, 4-(4-(2-(2-(2-Aminoethoxy)Ethoxy)Ethyl)Piperazin-1-yl)-N-Cyclopentyl-6-Ethoxy-1,3,5-Triazin-2-Amine]
hCB2 displacement of [3H]-CP 55,940 in 10 μM screen (in words) [1]: failed to displace, or barely displaced
inhibition at 10 µM [1, 8]: 15.6%

SR 144528 [reference compound]
PTX sensitivity of cAMP signal (in words) [4]: PTX-sensitive
Time to maximum cAMP effect after drug addition [4]: approximately 6 min
cAMP (5 min) Emax (±SEM) [4]: 55.4%
Non-hCB2-mediated effects on cAMP (in words) [5]: did not exhibit any measurable non-hCB2-mediated effects

CCOc1nc(NC23CC4CC(CC(C4)C2)C3)nc(N2CCN(CCOCCOCCNC(=O)OC(C)(C)C)CC2)n1 [Compound 10, tert-Butyl N-(2-(2-(2-(4-(4-((Adamantan-1-yl)Amino)-6-Ethoxy-1,3,5-Triazin-2-yl)Piperazin-1-yl)Ethoxy) Ethoxy)Ethyl)Carbamate]
inhibition at 10 µM [1, 8]: 91.8%
Reduction in hCB2 binding affinity compared to 15 [1]: 2–3 log units
Ki [1, 9]: 0.661 µM
CB1 binding extent at 10 μM (%) (±SEM) [2]: 16.7 (7.8) %
CB2 selectivity over CB1 (in words) [2]: likely also CB2-selective
EC50 ([3]; 1 h stimulation): 0.0891 µM
logR [log(τ/KA)] (±SEM) Internalisation [3]: 7.09 (0.10)
Behaviour in cAMP pathway (in words) ([4]; 5 μM forskolin): partial agonists
EC50 [4, 10]: 0.105 µM
cAMP (5 min) Emax (±SEM) ([4]; 5 min post-drug, 5 μM forskolin, change relative to forskolin alone (100%), vehicle 0%, 10 and 14 approximate): –33.0 (0.9)^Δ %
logR [log(τ/KA)] (±SEM) cAMP [4]: 6.90 (0.10)
Non-hCB2-mediated cAMP effects: fold less potent than cAMP inhibition in hCB2-expressing cells [5]: ~23 fold
Behaviour in pERK pathway (in words) ([6]; 4 min): equivalent efficacies to CP 55,940
Emax ([6]; 4 min, response above vehicle, normalised to U0126 (0%) and PMA (100%), for 14 efficacy at 10 μM): 10.2%
EC50 [6, 11]: 1.07 µM
logR [log(τ/KA)] (±SEM) pERK [6]: 6.06 (0.02)
Time of maximal pERK response [6]: 4 min
Internalisation – pERK Bias factor [7]: 2.0
cAMP – internalisation Bias factor [7]: 1.2
cAMP – pERK Bias factor [7]: 2.4
Between-pathway signalling bias (in words) [7]: did not demonstrate any indication of between-pathway bias
Internalisation – pERK ΔΔlogR (±SEM) [7]: 0.31 (0.13)
cAMP – internalisation ΔΔlogR (±SEM) [7]: 0.07 (0.16)
cAMP – pERK ΔΔlogR (±SEM) [7]: 0.37 (0.10)

CCOc1nc(NC23CC4CC(CC(C4)C2)C3)nc(N2CCN(CCCCCCN)CC2)n1 [Compound 12, N-(Adamantan-1-yl)-4-(4-(6-Aminohexyl)Piperazin-1-yl)-6-Ethoxy-1,3,5-Triazin-2-Amine]
hCB2 displacement of [3H]-CP 55,940 in 10 μM screen (in words) [1]: moderate binders
inhibition at 10 µM [1, 8]: 43.5%

CCOc1nc(Cl)nc(NC2CCCC2)n1 [Compound 1, 4-Chloro-N-cyclopentyl-6-ethoxy-1,3,5-triazin-2-amine]
hCB2 displacement of [3H]-CP 55,940 in 10 μM screen (in words) [1]: failed to displace, or barely displaced
inhibition at 10 µM [1, 8]: -8.1%

CCOc1nc(NC23CC4CC(CC(C4)C2)C3)nc(N2CCN(CCOCCOCCN)CC2)n1 [Compound 13, N-(Adamantan-1-yl)-4-(4-(2-(2-(2-Aminoethoxy) Ethoxy)Ethyl)Piperazin-1-yl)-6-Ethoxy-1,3,5-Triazin-2-Amine]
inhibition at 10 µM [1, 8]: 81.1%
Reduction in hCB2 binding affinity compared to 15 [1]: 2–3 log units
Ki [1, 9]: 1.82 µM
CB1 binding extent at 10 μM (%) (±SEM) [2]: 29.6 (7.6) %
CB2 selectivity over CB1 (in words) [2]: likely also CB2-selective
Behaviour in internalisation pathway (in words) ([3]; 1 h stimulation): neutral antagonist
Internalisation (1 h) pEC50 (±SEM) ([3]; 1 h stimulation): Not Measurable
Emax at 10 µM ([3]; read-out: Internalisation (1 h) Emax (±SEM), 1 h stimulation, change in surface hCB2 relative to vehicle-treated (100%), for 13 efficacy at 10 μM): 6.2%
Behaviour in cAMP pathway (in words) ([4]; 5 μM forskolin): unconventional transient inverse agonist
Time to maximum cAMP effect after drug addition ([4]; 5 μM forskolin): ~4 min
Time to return to cAMP concentration induced by forskolin alone ([4]; 5 μM forskolin): 10 to 15 min
EC50 [4, 10]: 0.794 µM
PTX sensitivity of cAMP signal (in words) ([4]; PTX 100 ng mL-1 pre-treatment 16–20 h): completely PTX-sensitive
Non-hCB2-mediated effects on cAMP (in words) [5]: did not exhibit any measurable non-hCB2-mediated effects
Behaviour in pERK pathway (in words) ([6]; 4 min): weak partial agonists
EC50 [6, 11]: 0.537 µM
Time of maximal pERK response [6]: 4 min

Reference: PMC6256112, “Cannabinoid Receptor 2 Signalling Bias Elicited by 2,4,6-Trisubstituted 1,3,5-Triazines” (Frontiers in Pharmacology, 2018)
